Values quoted from earlier work as cited in patent US20250367263A9, “Therapeutic Regimens and Methods for Treatment of Cardiovascular Risk Factors using a GLP-1R and GCGR Agonist” (Spitfire Pharma LLC, priority 2022, published 2025).

## CCCCCCCCCCCCCCCC(=O)N[C@@H](CCC(=O)NCCCC[C@H](NC(=O)[C@H](CC(=O)O)NC(=O)[C@H](CO)NC(=O)[C@@H](NC(=O)[C@H](Cc1ccccc1)NC(=O)[C@@H](NC(=O)CNC(=O)[C@H](CCC(N)=O)NC(=O)[C@H](CO)NC(=O)[C@@H](N)Cc1c[nH]cn1)[C@@H](C)O)[C@@H](C)O)C(=O)N[C@@H](CO)C(=O)N[C@@H](CCC(=O)O)C(=O)N[C@@H](Cc1ccc(O)cc1)C(=O)N[C@@H](CC(C)C)C(=O)N[C@@H](CC(=O)O)C(=O)N[C@@H](CO)C(=O)N[C@@H](CCC(=O)O)C(=O)N[C@@H](CCCNC(=N)N)C(=O)N[C@@H](C)C(=O)N[C@@H](CCCNC(=N)N)C(=O)N[C@@H](CC(=O)O)C(=O)N[C@@H](Cc1ccccc1)C(=O)N[C@H](C(=O)N[C@@H](C)C(=O)N[C@@H](Cc1c[nH]c2ccccc12)C(=O)N[C@@H](CC(C)C)C(=O)N[C@@H](CCC(=O)O)C(=O)N[C@@H](C)C(=O)NCC(=O)NCC(=O)O)C(C)C)C(=O)O [cotadutide]
6 weeks
  reduction in liver fat content: 39%
human, in vivo
  NASH-related alanine aminotransferase (ALT) reduction, versus liraglutide alone: greater improvement
